Results on 6 molecules are retold here after patent publication US20030129168A1, “Expression of proteins for treating asthma via ligand mediated activation of their encoding genes” (ARIAD Gene Therapeutics, Inc., priority 1996, published 2003).

One data set relates to zeta-chain. The data set is described as follows: In vitro kinase assay after immunoprecipitation, Jurkat cells stably transfected with MZF3E. The format is cell-based, human.
Another data set has as its system MZF3Eflu and MZF3Eflag. The data set is described as follows: Coimmunoprecipitation of epitope-tagged chimeras in Jurkat T cells (in vivo FK1012-induced protein dimerization). The class given is cell-based, human. The protocol:
The following experiments confirmed that intracellular aggregation of the MZF3E receptor is indeed induced by the FK1012. The influenza haemagglutinin epitope-tag (flu) of the MZF3E-construct was exchanged with a different epitope-tag (flag-M2). The closely related chimeras, MZF3Eflu and MZF3Eflag, were coexpressed in Jurkat T cells. Immunoprecipitation experiments using anti-Flag-antibodies coupled to agarose beads were performed after the cells were treated with FK1012A. […] In absence of FK1012A, no coimmunoprecipitation of MZF3Eflu is observed. […] This reflects the requirement for aggregation observed with both the endogenous T cell receptor and our artificial receptor MZF3E.

The conditions of data set [1]: in vivo.
In data set [2] the test system is ZFHD1-FKBPx3 and FRAP-p65. The data set is described as follows: Rapamycin-dependent hGH expression in transfected HT1080 cells in culture. The settings on record: HT1080 cells in cell culture. The format is cell-based. The protocol:
(§1) Using the approach described in Example 7, constructs were prepared encoding the ZFHD1-FKBPx3 fusion protein, a second fusion protein containing the FKBP:rapaymcin binding (“FRB”) region of FRAP linked to the p6^5 activation domain, and a reporter cassette containing a gene encoding human growth hormone linked to multiple ZFHD1 binding sites. The natural product, rapamycin, forms a ternary complex with FKBP12 and FRAP. Similarly, rapamycin is capable of binding to one or more of the FKBP domains and FRAP FRB domains of the fusion proteins.

For data set [3], the system named is ZFHD1-FKBPx3 and FRAP-p65. The data set is described as follows: Rapamycin-dependent hGH expression in nu/nu mice implanted with transfected cells. The settings on record: rapamycin i.v. 10-10,000 μg/kg, serum 17 hours after administration. The format is in vivo. The protocol:
as §1
2×10^6 cells from the transfected […] culture were administered to nu/nu mice by intramuscular injection. Following cell implantation, rapamycin was administered i.v. over a range of doses (from 10-10,000 μg/kg). Serum samples were collected from the mice 17 hours after rapamycin administration. Control groups consisted of mice that received no cells but 1.0 mg/kg rapamycin (i.v.) as well as mice that received the cells but no rapamycin.

The subject of data set [4] is cells. The data set is described as follows: Toxicity in cell culture. The format is cell-based.
The subject of data set [5] is FKBP12-containing fusion proteins. The data set is described as follows: Gene regulation applications of dimerizer (SEAP or hGH reporter systems). The class given is cell-based. The note with it: for transcription activation with stably integrated constructs: cells in which the transcription factor and reporter gene constructs are all stably integrated. On the procedure:
After overnight incubation (or longer), assay for target gene expression.
Secreted alkaline phosphatase activity can be easily measured from the supernatant of appropriately transfected cells using fluorescence-(see (10)), or chemiluminescence-(Tropix, Bedford, Mass.) based assays. Samples to be tested should first be incubated at 65° C. for 1 hour to inactivate endogenous alkaline phosphatase activity.

Data set [6] concerns ZFHD1-FKBPx3 and FKBPx3-VP16 or FKBPx3-p65. The data set is described as follows: Dimerizer-dependent transcriptional activation (SEAP) in transiently transfected 293 cells. The format is cell-based. On the procedure:
293 cells were grown in D-MEM (Gibco BRL) supplemented with 10% Bovine Calf Serum. Cells in 35 mm dishes (2.5×10^5 cells/dish) were transiently transfected with use of calcium phosphate precipitation (Ausubel et. al., 1994). Each dish received 375 ng pZHWTx8SVSEAP; 12ng pCGNNZFHD1-FKBPx3 and 25ng pCGNNFKBPx3-VP16 or pCGNNFKBPx3-p65. Following transfection, 2 ml fresh media was added and supplemented with FK1012 to the desired concentration. After a 24 hour incubation […] aliquot of media was removed and assayed for SEAP activity as described (Spencer et. al., 1993).
An analgous experiment was conducted using a wholly synthetic dimerizer, AP1510, in place of FK1012. Like FK1012, AP1510 is a divalent FKBP-binder and is capable of dimerizing chimeric proteins which contain FKBP domains. In this experiment, 293 cells were grown in DMEM supplemented with 10% Bovine Calf Serum. Cells in 10 cm dishes were transiently transfected by calcium phosphate precipitation (Natesan and Gilman, 1995, Mol. Cell Biol, 15, 5975-5982). Each plate received 1 μg of pZHWTx8SVSEAP reporter, 50 ng pCGNNZFHD1-FKBP3×3, 50 ng pCGNNF3p65 or pCGNNF3VP16. Following transfection, 2 ml fresh media was added and supplemented with AP1510 to the desired concentration. After 24 hrs, 100 μl of the media was assayed for SEAP activity as described (Spencer et al, 1993).

Data set [7] in a line: Immunosuppressive activity.
The nature of data set [8]: Solubility of AP1510 in culture medium. The format is physicochemical. The note with it: aqueous buffer, kinetic from ethanol stock; serial dilution in (aqueous) culture medium; read-out: highest concentration ensuring complete solubility. On the procedure:
In the latter case it is recommended that the highest concentration not exceed 5 uM, to ensure complete solubility in the (aqueous) medium. […]

Data set [9] concerns cells. The note with it: in cell culture; cited from earlier work.
Data set [10] addresses T1, FKBP12 (Homo sapiens, UniProt P62942). The data set is described as follows: FK1012 binding affinity and stoichiometry. The note with it: linker positioned in the calcineurin binding domain of FK506.
Data set [11] deals with myristoylated chimeric CD3/FKBP12 (MZF3E) receptor. The data set is described as follows: FK1012 activation of myristoylated chimeric CD3/FKBP12 (MZF3E) receptor, NFAT SEAP reporter in Jurkat T cells. The class given is cell-based, human. The source says: In an illustrative case, this was accomplished by creating an intracellular receptor comprised of a small fragment of Src sufficient for posttranslational myristoylation (M), the cytoplasmic tail of zeta (Z; a component of the […] was also used), three consecutive FKBP12s (F3) and a flu epitope tag (E). […] The promoter of the SEAP reporter gene was constructed to be transcriptionally activated by nuclear factor of activated T cells (NFAT), which is assembled in the nucleus following TCR-signaling.
Specifically, 5 μg of the eukaryotic expression vector, pBJ5, containing a myristoylated chimeric receptor was co-transfected with 4 μg NFAT-SX. MZE, MZF1E, MZF2E and MZF3E contain 0, 1, 2, or 3 copies of FKBP12, respectively, downstream of a myristoylated CD3 cytoplasmic domain (see FIG. 2 of PCT/US94/01617). As a control, 5 μg of pBJ5 was used in a parallel transfection. After 24 hours, aliquots of each transfection containing approximately 10^5 cells were incubated with log dilutions of the drug, FK1012B, as indicated. As a positive control and to control for transfection efficiency, ionomycin (1 μm) and PMA (25 ng/ml) were added to aliquots from each transfection. After an additional 12 hour incubation, the supernatants were assayed for alkaline phosphatase activity and these activities were expressed relative to that of the positive control samples. […] Compare FIGS. 7 and 8 of PCT/US94/01617.

For data set [12], the system named is Jurkat cells stably transfected with MZF3E. The data set is described as follows: Protein-tyrosine phosphorylation in whole cell lysates (alpha-phosphotyrosine antibodies). The class given is cell-based, human. The note with it: whole cell lysates at varying times after stimulation. An excerpt: The intracellular domains of the TCR, CD3 and zeta-chains interact with cytoplasmic protein tyrosine kinases following antigen stimulation. Specific members of the Src family (lck and/or fyn) phosphorylate one or more tyrosine residues of activation motifs within these intracellular domains (tyrosine activation motif, TAM). The tyrosine kinase ZAP-70 is recruited (via its two SH2 domains) to the tyrosine phosphorylated T-cell-receptor, activated, and is likely to be involved in the further downstream activation of phospholipase C. […] Tyrosine phosphorylation after treatment of cells with either anti-CD3 MAb or FK1012 was detected using monoclonal alpha-phosphotyrosine antibodies. Whole cell lysates were analysed at varying times after stimulation. […] The pattern consisted of a major band of 70 kDa, probably ZAP-70, and minor bands of 120 kDa, 62 kDa, 55 kDa and 42 kDa.

The target of data set [13] is T1, FKBP12. The note with it: 2:1 stoichiometry, cited from earlier work.
Data set [14] concerns calcineurin-mediated TCR signaling. The settings on record: cited from earlier work.

Where two headings read alike, the source gives them in different places. Some results are limits rather than exact numbers.

T1 sequence (P62942 whole entry, the tested form may be a part): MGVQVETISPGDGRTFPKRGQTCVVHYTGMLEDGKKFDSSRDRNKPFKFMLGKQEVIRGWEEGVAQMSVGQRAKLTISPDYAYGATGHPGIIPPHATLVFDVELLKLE

For `CO[C@H]1C[C@@H](C)C/C(C)=C/[C@@H](CCOC(=O)NCc2ccc(CNC(=O)OCC[C@@H]3/C=C(\C)C[C@H](C)C[C@H](OC)[C@H]4O[C@@](O)(C(=O)C(=O)N5CCCC[C@H]5C(=O)O[C@H](/C(C)=C/[C@@H]5CC[C@@H](O)[C@H](OC)C5)[C@H](C)[C@@H](O)CC3=O)[C@H](C)C[C@@H]4OC)cc2)C(=O)C[C@H](O)[C@@H](C)[C@@H](/C(C)=C/[C@@H]2CC[C@@H](O)[C@H](OC)C2)OC(=O)[C@@H]2CCCCN2C(=O)C(=O)[C@]2(O)O[C@H]1[C@@H](OC)C[C@H]2C` [FK1012], in the data set with zeta-chain, the “recruitment of kinase activity to the zeta-chain” value is listed as “resulted in the recruitment of kinase activity to the zeta-chain”. The “dimerization of FKBP monomer constructs MZF1Eflu and MZF1Eflag” value in the data set with MZF3Eflu and MZF3Eflag was “also dimerized by FK1012A”. Moreover, the “coimmunoprecipitation of MZF3Eflu with MZF3Eflag” value in the data set with MZF3Eflu and MZF3Eflag (FK1012A 1 μM, anti-Flag agarose beads) was “is coimmunoprecipitated with MZF^3Eflag”.

As for hGH: human growth hormone, in data set [1], the hGH clearance half-life entry is recorded as “less than 2 minutes” and the “time to undetectable hGH levels” value is at most 30 min.

In the case of `CO[C@H]1C[C@@H]2CC[C@@H](C)[C@@](O)(O2)C(=O)C(=O)N2CCCC[C@H]2C(=O)O[C@H]([C@H](C)C[C@@H]2CC[C@@H](O)[C@H](OC)C2)CC(=O)[C@H](C)/C=C(\C)[C@@H](O)[C@@H](OC)C(=O)[C@H](C)C[C@H](C)/C=C/C=C/C=C/1C` [rapamycin], the “rapamycin-dependent expression of the hGH gene” value in [2] is on record as “support rapamycin-dependent expression of the hGH gene in cell culture”. In [3], the “expression of hGH (circulating hGH)” value was “Dose-responsive expression of hGH was observed”.

`CCC(C)(C)C(=O)C(=O)N1CCCC[C@H]1C(=O)O[C@H](CCc1ccc(OC)c(OC)c1)c1cccc(OCC(=O)NCCNC(=O)COc2cccc([C@@H](CCc3ccc(OC)c(OC)c3)OC(=O)[C@@H]3CCCCN3C(=O)C(=O)C(C)(C)CC)c2)c1` [AP1510]: the toxicity to cells result in the data set on cells [4] is reported as “non-toxic to cells”. Further, the “transcription activation with stably integrated constructs” value in data set [5] is on record as “activates transcription efficiently”. In [5] (gene regulation applications), the “concentration at which expression becomes detectable” value is on record as “approximately 10 nM”; the “concentration at which expression peaks” value is on record as “approximately 100 nM”; the “transcription activation compared with FK1012” value is “activates transcription at lower concentrations and to a higher level than PK1012”. For the same molecule, the dimerizer-dependent transcriptional activation entry in data set [6] (24 hrs) is recorded as “supports synthetic dimerizer-dependent transcriptional activation”. For the same molecule, the immunosuppressive activity entry in [7] is “no immunosuppressive activity”. For the same molecule, the solubility in [8] is at most 5 µM.

On to FK1012, for which the “transcription activation with stably integrated constructs” value in data set [5] is listed as “poor”. Also, in the data set on cells [9], the “toxic (not toxic up to)” value was above 0.1 mM. Also, on FKBP12 [10], the FKBP12 binding result is given as “leaving FKBP12 binding unaffected”. In data set [6] (24 hour incubation), the “concentration of peak transcriptional activation” value is reported as 100 nM. In addition, in [11] (MZF3E in human (Jurkat) T cells, NFAT-driven SEAP reporter, read-out: EC50, secretion of alkaline phosphatase (SEAP)), the half-maximal effective concentration (EC50) amounted to 50 nM. Moreover, the immunosuppressive activity entry in data set [7] was “abolishes immunosuppressive activity”. In addition, the “pattern of tyrosine-phosphorylated proteins” value in [12] is recorded as “A similar pattern of tyrosine-phosphorylated proteins was observed”. Moreover, the Kd is 0.1 nM on FKBP12 [13] (first binding event, read-out: Kd(1)) and 0.8 nM at FKBP12 [13] (second binding event, read-out: Kd(2)). In addition, in data set [14], the “inhibition of calcineurin-mediated TCR signaling / signalling pathways” value is “not inhibit calcineurin-mediated TCR signaling”.

Turning to `CO[C@H]1C[C@@H](C)C/C(C)=C/[C@@H](CCOC(=O)NCc2ccccc2)C(=O)C[C@H](O)[C@@H](C)[C@@H](/C(C)=C/[C@@H]2CC[C@@H](O)[C@H](OC)C2)OC(=O)[C@@H]2CCCCN2C(=O)C(=O)[C@]2(O)O[C@H]1[C@@H](OC)C[C@H]2C` [FK506-M], the toxicity to cells entry with cells [4] is reported as “nontoxic”. Also, the “termination of FK1012-induced signaling” value in [11] is given as “can be terminated by a deaggregation process”.
